# Assay results as given in article PMC5877410 (Journal of medicinal chemistry, 2017).
# Where “and” joins values, the source holds several entries; their conditions need not be identical. Equal values may be shown once. Read-outs that look alike come from different tables or passages of the source.
# Experiments:
# NAP1 spores = experiment: Phase-contrast microscope spore count assay; assay type: cell-based, Clostridium difficile
# Caco-2 monolayers = conditions: cited from earlier work
# NAP1 C. difficile spores = experiment: Optical density; assay type: cell-based, Clostridium difficile
# Caco-2 cell monolayer [1] = test system: Caco-2 cell monolayer
# ATCC strain 630 = conditions: murine infection model, strain ATCC 630; cited from earlier work
# [2] = biological target: C. difficile spore germination; assay type: cell-based, Clostridium difficile; conditions: inhibitor evaluated at 0.2 mM, varying TCA; average of three experiments ± SEM
# Caco-2 cell monolayer [3] = experiment: Caco-2 cell monolayer bidirectional permeability assay; conditions: 10 μM
# [4] = 10 μM compound, 2000 μM TCA, after 20 min, mean ± SD, N = 3
molecule,measurement,setting,value
"CO[C@@H]1CC[C@@]2(C)[C@@H](C1)C[C@H](OC)[C@@H]1[C@@H]2CC[C@]2(C)[C@@H]([C@H](C)CCC(=O)O)CC[C@@H]12 [6b, (R)-4-((3R,5S,7S,8R,9S,10S,13R,14S,17R)-3,7-Dimethoxy-10,13-dimethylhexadecahydro-1H-cyclopenta[a]-phenanthren-17-yl)pentanoic Acid]",Percent Spore Germination t20,NAP1 spores; [4],71 ± 2%
"C[C@H](CCC(=O)NCCS(=O)(=O)O)[C@H]1CC[C@H]2[C@@H]3[C@H](O)C[C@@H]4C[C@H](O)CC[C@]4(C)[C@H]3C[C@H](O)[C@]12C [TCA, taurocholic acid]",transport ratio,Caco-2 monolayers,greater than 10
"sodium 5-((R)-3-((3R,5S,7R,8R,9S,10S,13R,14S,17R)-3,7-dihydroxy-10,13-dimethylhexadecahydro-1H-cyclopenta[a]phenanthren-17-yl)butyl)tetrazol-1-ide [35a]",Concentration Required for Complete Inhibition,NAP1 C. difficile spores,10 µM
same,Percent Spore Germination Relative to control,NAP1 spores,12% and 12 ± 6%
same,Percent Spore Germination t0,NAP1 spores,15 ± 6%
same,Percent Spore Germination t20,NAP1 spores,22 ± 6%
"CO[C@@H]1CC[C@@]2(C)[C@@H](C1)C[C@H](OS(=O)(=O)[O-])[C@@H]1[C@@H]2CC[C@]2(C)[C@@H]([C@H](C)CCC(=O)N3CCCC3)CC[C@@H]12.[Na+] [21b, Sodium (3R,5S,7S,8R,9S,10S,13R,14S,17R)-3-Methoxy-10,13-dimethyl-17-((R)-5-oxo-5-(pyrrolidin-1-yl)pentan-2-yl)-hexadecahydro-1H-cyclopenta[a]phenanthren-7-yl Sulfate]",Percent Spore Germination t20,NAP1 spores; [4],30 ± 6%
same,Percent Spore Germination t0,"NAP1 spores; 10 μM compound, 2000 μM TCA, time 0, mean ± SD, N = 3",18 ± 2%
same,Inhibition of spore germination at 50 μM,"NAP1 spores; 50 μM compound, 2000 μM TCA (Table S1)",complete inhibition of spore germination
"sodium 5-((R)-3-((3R,5S,7R,8R,9S,10S,13R,14S,17R)-3-methoxy-10,13-dimethyl-7-(sulfonatooxy)hexadecahydro-1H-cyclopenta[a]phenanthren-17-yl)-butyl)tetrazol-1-ide [38a]",Percent Spore Germination t0,NAP1 spores,20 ± 11%
same,Percent Spore Germination t20,NAP1 spores,48 ± 11%
same,mean permeability A–B,Caco-2 cell monolayer [1],0.4 10^−6 cm/s
same,mean permeability B–A,Caco-2 cell monolayer [1],0.4 10^−6 cm/s
"C[C@H](CCC(=O)Nc1cccc(S(=O)(=O)O)c1)[C@H]1CC[C@H]2[C@@H]3[C@H](O)C[C@@H]4C[C@H](O)CC[C@]4(C)[C@H]3C[C@H](O)[C@]12C [compound 3, reference compound]",Percent Spore Germination t20,NAP1 spores; [4],74 ± 2%
same,Effect on CDI symptoms,ATCC strain 630,eradicated CDI symptoms
"sodium 5-((R)-3-((3R,5R,7R,8R,9S,10S,13R,14S,17R)-7-hydroxy-3-methoxy-10,13-dimethyl-hexadecahydro-1H-cyclopenta[a]phenanthren-17-yl)butyl)-tetrazol-1-ide [37a]",Concentration Required for Complete Inhibition,NAP1 C. difficile spores,5 µM
same,Ki,[2],17.9 ± 4.6 µM
same,Percent Spore Germination t0,NAP1 spores,20% and 16 ± 4%
same,Percent Spore Germination t20,NAP1 spores,25%
same,mean permeability A–B,Caco-2 cell monolayer [1],10.7 10^−6 cm/s
same,mean permeability B–A,Caco-2 cell monolayer [1],1.9 10^−6 cm/s
same,fold greater permeability in the A–B direction than C7-sulfated analogue 38a,Caco-2 cell monolayer [3],over 25 times
"COC(=O)CC[C@@H](C)[C@H]1CC[C@H]2[C@@H]3[C@H](O)C[C@@H]4C[C@H](O)CC[C@]4(C)[C@H]3CC[C@]12C [2a, methyl (R)-4-((3R,5S,7R,8R,9S,10S,13R,14S,17R)-3,7-dihydroxy-10,13-dimethylhexadecahydro-1H-cyclopenta[a]phenanthren-17-yl)pentanoate, reference compound]",Percent Spore Germination t20,NAP1 spores; [4],71 ± 1%
